From patent US12637465B2, “Pharmaceutically acceptable salts of sepiapterin” (PTC Therapeutics MP, Inc., priority 2018, dated 2026)

Test: Solid form stability study of salts and/or co-crystals at 25° C./60% RH and 40° C./75% RH
Type: physicochemical
Conditions: not given
Protocol: The stability of the prepared salts and/or co-crystals was analyzed after 1 and 2 weeks at 25° C. and 60% relative humidity and 40° C. and 75% relative humidity. […] None of the phosphate, tartrate, or nicotinate salts and/or co-crystals underwent a form change during the stability testing, and each of them retained greater than 97% purity over the two weeks of the study. In fact, both the tartrate and nicotinate both retained greater than 99% purity.

SMILES	Stability in the solid form stability study of Example 2
C[C@H](O)C(=O)C1=Nc2c(nc(N)[nH]c2=O)NC1 [Fumarate, sepiapterin]	high stability

Same assay, conditions: 1 week, 25° C./60% RH

SMILES	Purity (Area %)	Purity vs. initial (%)	Form change
C[C@H](O)C(=O)C1=Nc2c(nc(N)[nH]c2=O)NC1 [Benzenesulfonate, sepiapterin]	90.68	100.5	
C[C@H](O)C(=O)C1=Nc2c(nc(N)[nH]c2=O)NC1 [Fumarate, sepiapterin]	99.39	99.9	No
C[C@H](O)C(=O)C1=Nc2c(nc(N)[nH]c2=O)NC1 [Gentisate, sepiapterin]	97.66	103.5	
C[C@H](O)C(=O)C1=Nc2c(nc(N)[nH]c2=O)NC1 [Glycolate, sepiapterin]	98.93	99.7	
C[C@H](O)C(=O)C1=Nc2c(nc(N)[nH]c2=O)NC1 [HCI, sepiapterin]	97.19	103.5	No
C[C@H](O)C(=O)C1=Nc2c(nc(N)[nH]c2=O)NC1 [Malonate, sepiapterin]	99.39	99.9	
C[C@H](O)C(=O)C1=Nc2c(nc(N)[nH]c2=O)NC1 [Methanesulfonate, sepiapterin]	95.26	104.5	No
C[C@H](O)C(=O)C1=Nc2c(nc(N)[nH]c2=O)NC1 [Sulfate, sepiapterin]	95.22	97.8	No
C[C@H](O)C(=O)C1=Nc2c(nc(N)[nH]c2=O)NC1 [Toluenesulfonate, sepiapterin]	94.19	97.3	No

Same assay, conditions: 1 week, 40° C./75% RH

SMILES	Purity (Area %)	Purity vs. initial (%)	Form change
C[C@H](O)C(=O)C1=Nc2c(nc(N)[nH]c2=O)NC1 [Benzenesulfonate, sepiapterin]	82.63	91.6	
C[C@H](O)C(=O)C1=Nc2c(nc(N)[nH]c2=O)NC1 [Fumarate, sepiapterin]	99.15	99.7	No
C[C@H](O)C(=O)C1=Nc2c(nc(N)[nH]c2=O)NC1 [Gentisate, sepiapterin]	96.89	102.7	
C[C@H](O)C(=O)C1=Nc2c(nc(N)[nH]c2=O)NC1 [Glycolate, sepiapterin]	98.54	99.3	
C[C@H](O)C(=O)C1=Nc2c(nc(N)[nH]c2=O)NC1 [HCI, sepiapterin]	89.25	95.0	No
C[C@H](O)C(=O)C1=Nc2c(nc(N)[nH]c2=O)NC1 [Malonate, sepiapterin]	99.14	99.7	
C[C@H](O)C(=O)C1=Nc2c(nc(N)[nH]c2=O)NC1 [Methanesulfonate, sepiapterin]	88.68	97.3	No
C[C@H](O)C(=O)C1=Nc2c(nc(N)[nH]c2=O)NC1 [Sulfate, sepiapterin]	89.44	91.9	No
C[C@H](O)C(=O)C1=Nc2c(nc(N)[nH]c2=O)NC1 [Toluenesulfonate, sepiapterin]	89.11	92.0	No

Same assay, conditions: 2 weeks, 25° C./60% RH

SMILES	Purity (Area %)	Purity vs. initial (%)	Form change
C[C@H](O)C(=O)C1=Nc2c(nc(N)[nH]c2=O)NC1 [Benzenesulfonate, sepiapterin]	86.37	95.8	
C[C@H](O)C(=O)C1=Nc2c(nc(N)[nH]c2=O)NC1 [Fumarate, sepiapterin]	99.25	99.7	
C[C@H](O)C(=O)C1=Nc2c(nc(N)[nH]c2=O)NC1 [Gentisate, sepiapterin]	97.00	102.8	
C[C@H](O)C(=O)C1=Nc2c(nc(N)[nH]c2=O)NC1 [Glycolate, sepiapterin]	98.86	99.7	
C[C@H](O)C(=O)C1=Nc2c(nc(N)[nH]c2=O)NC1 [HCI, sepiapterin]	91.84	97.8	No
C[C@H](O)C(=O)C1=Nc2c(nc(N)[nH]c2=O)NC1 [Malonate, sepiapterin]	99.23	99.8	
C[C@H](O)C(=O)C1=Nc2c(nc(N)[nH]c2=O)NC1 [Methanesulfonate, sepiapterin]	91.95	100.9	No
C[C@H](O)C(=O)C1=Nc2c(nc(N)[nH]c2=O)NC1 [Sulfate, sepiapterin]	93.46	96.0	No
C[C@H](O)C(=O)C1=Nc2c(nc(N)[nH]c2=O)NC1 [Toluenesulfonate, sepiapterin]	91.40	94.4	No

Same assay, conditions: 2 weeks, 40° C./75% RH

SMILES	Purity (Area %)	Purity vs. initial (%)	Form change
C[C@H](O)C(=O)C1=Nc2c(nc(N)[nH]c2=O)NC1 [Benzenesulfonate, sepiapterin]	82.65	91.6	
C[C@H](O)C(=O)C1=Nc2c(nc(N)[nH]c2=O)NC1 [Fumarate, sepiapterin]	98.98	99.5	
C[C@H](O)C(=O)C1=Nc2c(nc(N)[nH]c2=O)NC1 [Gentisate, sepiapterin]	93.37	102.1	
C[C@H](O)C(=O)C1=Nc2c(nc(N)[nH]c2=O)NC1 [Glycolate, sepiapterin]	98.52	99.3	
C[C@H](O)C(=O)C1=Nc2c(nc(N)[nH]c2=O)NC1 [HCI, sepiapterin]	84.16	89.6	No
C[C@H](O)C(=O)C1=Nc2c(nc(N)[nH]c2=O)NC1 [Malonate, sepiapterin]	97.81	98.3	
C[C@H](O)C(=O)C1=Nc2c(nc(N)[nH]c2=O)NC1 [Methanesulfonate, sepiapterin]	85.97	94.3	No
C[C@H](O)C(=O)C1=Nc2c(nc(N)[nH]c2=O)NC1 [Sulfate, sepiapterin]	88.20	90.6	No
C[C@H](O)C(=O)C1=Nc2c(nc(N)[nH]c2=O)NC1 [Toluenesulfonate, sepiapterin]	88.12	91.0	No

Same assay, conditions: Initial

SMILES	Purity (Area %)
C[C@H](O)C(=O)C1=Nc2c(nc(N)[nH]c2=O)NC1 [Benzenesulfonate, sepiapterin]	90.20
C[C@H](O)C(=O)C1=Nc2c(nc(N)[nH]c2=O)NC1 [Fumarate, sepiapterin]	99.46
C[C@H](O)C(=O)C1=Nc2c(nc(N)[nH]c2=O)NC1 [Gentisate, sepiapterin]	94.35
C[C@H](O)C(=O)C1=Nc2c(nc(N)[nH]c2=O)NC1 [Glycolate, sepiapterin]	99.19
C[C@H](O)C(=O)C1=Nc2c(nc(N)[nH]c2=O)NC1 [HCI, sepiapterin]	93.94
C[C@H](O)C(=O)C1=Nc2c(nc(N)[nH]c2=O)NC1 [Malonate, sepiapterin]	99.45
C[C@H](O)C(=O)C1=Nc2c(nc(N)[nH]c2=O)NC1 [Methanesulfonate, sepiapterin]	91.14
C[C@H](O)C(=O)C1=Nc2c(nc(N)[nH]c2=O)NC1 [Sulfate, sepiapterin]	97.33
C[C@H](O)C(=O)C1=Nc2c(nc(N)[nH]c2=O)NC1 [Toluenesulfonate, sepiapterin]	96.84

Test: Form change/disproportionation of residual solids by XRPD after suspension in water or Medisca Oral Mix
Type: physicochemical
Conditions: not given
Protocol: The kinetic solubility was evaluated for nicotinate, phosphate, L-tartrate, and fumarate salts and/or co-crystals of sepiapterin in water and […] Oral Mix. X-ray powder diffraction (XRPD) was performed for the residual solids to identify form change/disproportionation. Solids were suspended into the media with target conc. of 7 mg/mL (calculated by freebase). […] Oral Mix after 1 hour. […] Oral Mix.

SMILES	Disproportionation in the disproportionation study
C[C@H](O)C(=O)C1=Nc2c(nc(N)[nH]c2=O)NC1 [Fumarate, sepiapterin]	no evidence of disproportionation

Same assay, conditions: Medisca Oral Mix, 1 hr, RT; listed as fumarate salt and/or co-crystal

SMILES	Form change (residual solids, XRPD)
C[C@H](O)C(=O)C1=Nc2c(nc(N)[nH]c2=O)NC1 [Fumarate, sepiapterin]	No **

Same assay, conditions: Medisca Oral Mix, 4 hr, RT; listed as fumarate salt and/or co-crystal

SMILES	Form change (residual solids, XRPD)
C[C@H](O)C(=O)C1=Nc2c(nc(N)[nH]c2=O)NC1 [Fumarate, sepiapterin]	No **

Same assay, conditions: Medisca Oral Mix, 24 hr, RT; listed as fumarate salt and/or co-crystal

SMILES	Form change (residual solids, XRPD)
C[C@H](O)C(=O)C1=Nc2c(nc(N)[nH]c2=O)NC1 [Fumarate, sepiapterin]	No **

Same assay, conditions: Medisca Oral Mix, after 1 hour; listed as fumarate salt and/or co-crystal

SMILES	Form of the residual solids in Medisca Oral Mix
C[C@H](O)C(=O)C1=Nc2c(nc(N)[nH]c2=O)NC1 [Fumarate, sepiapterin]	crystallinity of residual solids decreased

Same assay, conditions: Water, 1 hr, RT; listed as fumarate salt and/or co-crystal

SMILES	Form change (residual solids, XRPD)
C[C@H](O)C(=O)C1=Nc2c(nc(N)[nH]c2=O)NC1 [Fumarate, sepiapterin]	No

Same assay, conditions: Water, 4 hr, RT; listed as fumarate salt and/or co-crystal

SMILES	Form change (residual solids, XRPD)
C[C@H](O)C(=O)C1=Nc2c(nc(N)[nH]c2=O)NC1 [Fumarate, sepiapterin]	No

Same assay, conditions: Water, 24 hr, RT; listed as fumarate salt and/or co-crystal

SMILES	Form change (residual solids, XRPD)
C[C@H](O)C(=O)C1=Nc2c(nc(N)[nH]c2=O)NC1 [Fumarate, sepiapterin]	No

Same assay, conditions: water, after 1 hour; listed as fumarate salt and/or co-crystal

SMILES	Form of the residual solids in water
C[C@H](O)C(=O)C1=Nc2c(nc(N)[nH]c2=O)NC1 [Fumarate, sepiapterin]	no form change was observed

Test: Kinetic solubility in water and Medisca Oral Mix (HPLC solubility, purity and pH of supernatant)
Type: physicochemical
Conditions: Medisca Oral Mix, 1 hr, RT
Protocol: The kinetic solubility was evaluated for nicotinate, phosphate, L-tartrate, and fumarate salts and/or co-crystals of sepiapterin in water and […] Oral Mix. X-ray powder diffraction (XRPD) was performed for the residual solids to identify form change/disproportionation. Solids were suspended into the media with target conc. of 7 mg/mL (calculated by freebase).

SMILES	Observation
C[C@H](O)C(=O)C1=Nc2c(nc(N)[nH]c2=O)NC1 [Fumarate, sepiapterin]	Turbid

Same assay, conditions: Medisca Oral Mix, 1 hr, RT; for reference only; listed as fumarate salt and/or co-crystal

SMILES	Purity (area %) of supernatant [area %]
C[C@H](O)C(=O)C1=Nc2c(nc(N)[nH]c2=O)NC1 [Fumarate, sepiapterin]	99.74

Same assay, conditions: Medisca Oral Mix, 1 hr, RT; listed as fumarate salt and/or co-crystal

SMILES	pH
C[C@H](O)C(=O)C1=Nc2c(nc(N)[nH]c2=O)NC1 [Fumarate, sepiapterin]	4.0

Same assay, conditions: Medisca Oral Mix, 4 hr, RT

SMILES	Observation
C[C@H](O)C(=O)C1=Nc2c(nc(N)[nH]c2=O)NC1 [Fumarate, sepiapterin]	Turbid

Same assay, conditions: Medisca Oral Mix, 4 hr, RT; for reference only; listed as fumarate salt and/or co-crystal

SMILES	Purity (area %) of supernatant [area %]
C[C@H](O)C(=O)C1=Nc2c(nc(N)[nH]c2=O)NC1 [Fumarate, sepiapterin]	99.60

Same assay, conditions: Medisca Oral Mix, 4 hr, RT; listed as fumarate salt and/or co-crystal

SMILES	pH
C[C@H](O)C(=O)C1=Nc2c(nc(N)[nH]c2=O)NC1 [Fumarate, sepiapterin]	4.0

Same assay, conditions: Medisca Oral Mix, 24 hr, RT

SMILES	Observation
C[C@H](O)C(=O)C1=Nc2c(nc(N)[nH]c2=O)NC1 [Fumarate, sepiapterin]	Turbid

Same assay, conditions: Medisca Oral Mix, 24 hr, RT; for reference only; listed as fumarate salt and/or co-crystal

SMILES	Purity (area %) of supernatant [area %]
C[C@H](O)C(=O)C1=Nc2c(nc(N)[nH]c2=O)NC1 [Fumarate, sepiapterin]	96.54

Same assay, conditions: Medisca Oral Mix, 24 hr, RT; listed as fumarate salt and/or co-crystal

SMILES	pH
C[C@H](O)C(=O)C1=Nc2c(nc(N)[nH]c2=O)NC1 [Fumarate, sepiapterin]	4.0

Same assay, conditions: Water, 1 hr, RT

SMILES	Observation
C[C@H](O)C(=O)C1=Nc2c(nc(N)[nH]c2=O)NC1 [Fumarate, sepiapterin]	Turbid

Same assay, conditions: Water, 1 hr, RT; for reference only; listed as fumarate salt and/or co-crystal

SMILES	Purity (area %) of supernatant [area %]
C[C@H](O)C(=O)C1=Nc2c(nc(N)[nH]c2=O)NC1 [Fumarate, sepiapterin]	98.39

Same assay, conditions: Water, 1 hr, RT; listed as fumarate salt and/or co-crystal

SMILES	pH
C[C@H](O)C(=O)C1=Nc2c(nc(N)[nH]c2=O)NC1 [Fumarate, sepiapterin]	3.1

Same assay, conditions: Water, 4 hr, RT

SMILES	Observation
C[C@H](O)C(=O)C1=Nc2c(nc(N)[nH]c2=O)NC1 [Fumarate, sepiapterin]	Turbid

Same assay, conditions: Water, 4 hr, RT; for reference only; listed as fumarate salt and/or co-crystal

SMILES	Purity (area %) of supernatant [area %]
C[C@H](O)C(=O)C1=Nc2c(nc(N)[nH]c2=O)NC1 [Fumarate, sepiapterin]	98.19

Same assay, conditions: Water, 4 hr, RT; listed as fumarate salt and/or co-crystal

SMILES	pH
C[C@H](O)C(=O)C1=Nc2c(nc(N)[nH]c2=O)NC1 [Fumarate, sepiapterin]	3.1

Same assay, conditions: Water, 24 hr, RT

SMILES	Observation
C[C@H](O)C(=O)C1=Nc2c(nc(N)[nH]c2=O)NC1 [Fumarate, sepiapterin]	Turbid

Same assay, conditions: Water, 24 hr, RT; for reference only; listed as fumarate salt and/or co-crystal

SMILES	Purity (area %) of supernatant [area %]
C[C@H](O)C(=O)C1=Nc2c(nc(N)[nH]c2=O)NC1 [Fumarate, sepiapterin]	95.43

Same assay, conditions: Water, 24 hr, RT; listed as fumarate salt and/or co-crystal

SMILES	pH
C[C@H](O)C(=O)C1=Nc2c(nc(N)[nH]c2=O)NC1 [Fumarate, sepiapterin]	3.1
